The assay addresses T1, TcCA (Trypanosoma cruzi carbonic anhydrase) (Trypanosoma cruzi, UniProt Q4CVY4).
T1 construct: gene Tc00.1047053509597.20
T1 sequence (Q4CVY4 39-638): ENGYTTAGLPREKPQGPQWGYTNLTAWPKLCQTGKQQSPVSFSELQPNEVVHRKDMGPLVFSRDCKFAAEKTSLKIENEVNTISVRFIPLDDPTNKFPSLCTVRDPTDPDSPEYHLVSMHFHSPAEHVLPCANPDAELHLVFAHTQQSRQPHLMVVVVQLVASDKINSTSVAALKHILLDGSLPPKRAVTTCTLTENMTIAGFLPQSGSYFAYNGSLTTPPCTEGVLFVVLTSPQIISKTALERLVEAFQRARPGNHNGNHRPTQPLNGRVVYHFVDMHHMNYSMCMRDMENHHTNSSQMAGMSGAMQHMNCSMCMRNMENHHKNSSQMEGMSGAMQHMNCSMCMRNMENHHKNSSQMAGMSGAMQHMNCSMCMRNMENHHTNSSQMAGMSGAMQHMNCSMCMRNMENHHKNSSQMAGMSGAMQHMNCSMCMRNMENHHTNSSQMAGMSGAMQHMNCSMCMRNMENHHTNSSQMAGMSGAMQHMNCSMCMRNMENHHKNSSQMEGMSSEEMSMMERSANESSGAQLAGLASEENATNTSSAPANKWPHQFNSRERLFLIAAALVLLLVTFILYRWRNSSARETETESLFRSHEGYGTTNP
The assay is described as follows: stopped-flow CO2 hydration assay. It counts as biochemical. The settings on record: read-out: KITcCA. The text has this: stopped-flow CO2 hydration assay on TcCA (Trypanosoma cruzi carbonic anhydrase)

Regarding `CC1=CC(=O)NS(=O)(=O)O1` [Acesulphame], the Ki came to 2.24 µM.
With `O=S(=O)(O)NC1CCCCC1` [Sodium cyclamate], the Ki was 0.348 µM.
With `COC(=O)CCNS(=O)(=O)NCCc1ccccc1` [compound 7, 7] the figure was 7.25 µM.
As to `COC(=O)[C@H](Cc1ccccc1)NS(=O)(=O)NCC(C)C` [compound 5, 5], the Ki was determined as 0.261 µM.

The values are drawn from PMC6807911, “A structure-based approach towards the identification of novel antichagasic compounds: Trypanosoma cruzi carbonic anhydrase inhibitors” (Journal of Enzyme Inhibition and Medicinal Chemistry, 2019).
